Reference: patent US20120264784A1, “METHODS OF TREATING ELEVATIONS IN MTOR SIGNALING” (priority 2009, published 2012)

Experiments:
[1] = system: area CA1 of hippocampal slices; assay: DHPG induced mGluR-LTD, field EPSP recordings in acute hippocampal slices; set-up: species or system mice
Method: Acute hippocampal slices were prepared from P25-30 animals in ice-cold dissection buffer containing (in mM): NaCl 87, Sucrose 75, KCl 2.5, NaH2PO4 1.25, NaHCO3 25, CaCl2 0.5, MgSO4 7, Ascorbic acid 1.3, and D-glucose 10 (saturated with 95% O2/5% CO2). Immediately following slicing the CA3 region was removed. Slices were recovered in artificial cerebrospinal fluid (ACSF) containing (in mM): NaCl 124, KCl 5, NaH2PO4 1.23, NaHCO3 26, CaCl2 2, MgCl2 1 and D-glucose 10 (saturated with 95% O2/5% CO2) at 32.5° C. for about >3 hours prior to recording.
(§1) Field recordings were performed in a submersion chamber, perfused with ACSF (about 2-3 ml/min) at 30° C. Field EPSPs (fEPSPs) were recorded in CA1 stratum radiatum with extracellular electrodes filled with ACSF. Baseline responses were evoked by stimulation of the Schaffer collaterals at 0.033 Hz with a 2-contact cluster electrode (FHC) using about a 0.2 ms stimulus yielding about 40-60% of the maximal response. fEPSP recordings were filtered at about 0.1 Hz-1 kHz, digitized at 10 kHz, and analyzed using pClamp9 (Axon Instruments). The initial slope of the response was used to assess changes in synaptic strength. Data were normalized to the baseline response and are presented as group means±SEM. LTD was measured by comparing the average response about 55-60 minutes post DHPG application to the average of the last 5 minutes of baseline.
(§2) Input output function was examined by stimulating slices with incrementally increasing current (about 20, about 40, about 80, about 120, about 200, about 300 μA) and recording the fEPSP response. Paired pulse facilitation was induced by applying two pulses at different interstimulus intervals (about 10, about 20, about 50, about 100, about 200, about 300, about 500 ms). Facilitation was measured by the ratio of the fEPSP slope of stimulus 2 to stimulus 1. NMDAR-dependent LTD was induced by delivering 900 test pulses at 1 Hz. mGluR-LTD was induced by applying R, S-Dihydroxyphenylglycine (R,S-DHPG, 50 μM) or S-Dihydroxyphenylglycine (S-DHPG, 25 μM) for about 5 minutes, the effects of which were followed for 60 minutes following treatment. In some experiments slices were incubated with the protein synthesis inhibitor cycloheximide (60 μM) for 30 minutes as follows: about 20 minutes during baseline recording, about 5 minutes during DHPG application and about 5 minutes post DHPG application.
For mGluR PAM experiments, slices were pretreated with CDPPB (10 μM) or DMSO control for about 30 minutes in same manner as above, either in the presence of cycloheximide or control ACSF. For rapamycin experiments, slices were pretreated with rapamycin (20 nM) or DMSO control, with or without cycloheximide, for at least 30 minutes prior to DHPG application and throughout the entire experiment.

[2] = system: area CA1 of hippocampal slices; assay: Paired pulse facilitation (presynaptic LTD) in acute hippocampal slices; set-up: species or system mice; conditions: for PPF (ratio of fEPSP slope of stimulus 2 to stimulus 1): 50 ms inter-stimulus interval, 60 minutes post DHPG (FIG. 3D)
Method: as §1, §2

[3] = system: wildtype and Tsc2^+/− mice; assay: Context fear-conditioning (context discrimination); type: in vivo; conditions: for effect on context discrimination (in words): 10 mg/kg i.p. 30 minutes prior to training; for percentage of time spent freezing: single injection 10 mg/kg i.p. 30 minutes prior to training, tested 24 hours later
Method: Context fear-conditioning experiments were employed to assess improvements in cognitive processing following administration of a composition that activates Group I mGluR signaling, such as by administration of mGluR5PAMs. Context fear-conditioning was performed using a modification of a previously described procedure (Ehninger, D., et al., Nat Med 14, 843-8 (2008). Wildtype and Tsc2^+/− mice (8-12 weeks old) are habituated to the testing room and experimenter for 3 days prior to training On the day of training, mice is placed in the training context and delivered one 0.80 mA shocks (2 sec). The mice were allowed about 3 minutes to explore context before conditioning and were removed about 15 sec after the shock was given and returned to home cage. Conditioned fear response was assessed 24 hours later by a trained observer measuring the percentage of time spent freezing during the test period (about 3 min session). To determine context specificity of the conditioned response, mice trained at the same time were separated into two groups: one group was tested in the same training context and the other tested in a novel context. This novel context was created by varying: distal cues, odor, floor material, and lighting of the testing apparatus. For rescue experiments, animals received a single injection of CDPPB (10 mg/kg, i.p.) about 30 minutes prior to training session.
Cognitive impairments in the Tsc2^+/− mice were improved by treating the animals with the mTORC1 inhibitor rapamycin (Ehninger, D., et al., Nat. Med. 14: 843-848 (2008)). A robust phenotype was reported to be an impairment in the ability of the Tsc2^+/− mice to distinguish between familiar and novel contexts in a fear conditioning paradigm. The advantage of this paradigm is the learning occurs in one trial, making it amenable to acute drug treatment, and the memory is hippocampus-dependent. The mice are first exposed to a distinctive context in which they receive an aversive foot shock. The next day, context discrimination is tested by dividing the animals into two groups, one placed in the familiar context associated with the shock, and the other placed in a novel context (FIG. 6A). Context discrimination is assessed by measuring the time the animals express fear by freezing in each context.

With `N[C@@H](C(=O)O)c1cc(O)cc(O)c1` (racemic) [DHPG, (R,S)-3,5-dihydroxyphenylglycine] the “DHPG induced LTD (fEPSP slope normalized to baseline)” value ([1]; slices from Tsc2^+/− mice, DHPG alone, 5 min, 55-60 min post DHPG (FIG. 3B)) was 85.2±2.7%, the “DHPG induced LTD (fEPSP slope normalized to baseline)” value ([1]; slices from WT mice, DHPG alone, 5 min, 55-60 min post DHPG (FIG. 3B)) was 74.1±2.0% and the “PPF (ratio of fEPSP slope of stimulus 2 to stimulus 1)” value ([2]; Tsc2^+/− slices) was 1.63±0.02. The “PPF (ratio of fEPSP slope of stimulus 2 to stimulus 1)” value ([2]; WT slices) was 1.59±0.04.

In the case of `N#Cc1cccc(C(=O)Nc2cc(-c3ccccc3)nn2-c2ccccc2)c1` [CDPPB, 3-cyano-N-(1,3-diphenyl-1H-pyrazol-5-yl)benzamide], the “effect on DHPG induced LTD (in words)” value ([1]; slices from Tsc2^+/− mice) is reported as “restored the magnitude of mGluR-LTD in Tsc2^+/− mice to WT levels”, the “DHPG induced LTD (fEPSP slope normalized to baseline)” value ([1]; slices from Tsc2^+/− mice, CDPPB 10 μM co-applied with cycloheximide (FIG. 5E)) is reported as 84.8±1.8% and the “DHPG induced LTD (fEPSP slope normalized to baseline)” value ([1]; slices from Tsc2^+/− mice, pretreatment with CDPPB 10 μM (FIG. 5D)) is reported as 72.7±4.4%. The “effect on DHPG induced LTD in the presence of cycloheximide (in words)” value ([1]; slices from Tsc2^+/− mice, with cycloheximide) was “completely eliminated by cycloheximide”, the “effect on context discrimination (in words)” value ([3]; Tsc2^+/− mice) was “sufficient to correct the deficit in context discrimination” and the “percentage of time spent freezing” value ([3]; Tsc2^+/− mice, familiar context) was 44.5±4.3%. The “percentage of time spent freezing” value ([3]; Tsc2^+/− mice, novel context) was 31.6±3%, the “effect on context discrimination (in words)” value ([3]; WT mice) was “no effect” and the “percentage of time spent freezing” value ([3]; WT mice, familiar context) was 42.3±3.7%. For the same molecule, the “percentage of time spent freezing” value ([3]; WT mice, novel context) was 26.4±3.6%.

`CO[C@H]1C[C@@H]2CC[C@@H](C)[C@@](O)(O2)C(=O)C(=O)N2CCCC[C@H]2C(=O)O[C@H]([C@H](C)C[C@@H]2CC[C@@H](O)[C@H](OC)C2)CC(=O)[C@H](C)/C=C(\C)[C@@H](O)[C@@H](OC)C(=O)[C@H](C)C[C@H](C)/C=C/C=C/C=C/1C` [RAP, rapamycin] was tested, and the “DHPG induced LTD (fEPSP slope normalized to baseline)” value ([1]; slices from Tsc2^+/− mice, pretreatment with rapamycin 20 nM (FIG. 5B)) was 75.3±3%, the “DHPG induced LTD (fEPSP slope normalized to baseline)” value ([1]; slices from Tsc2^+/− mice, rapamycin 20 nM with cycloheximide (FIG. 5C)) was 89.3±2.4% and the “effect on DHPG induced LTD (in words)” value ([1]; slices from WT mice) was “no effect”. For the same molecule, the “DHPG induced LTD (fEPSP slope normalized to baseline)” value ([1]; slices from wildtype animals, pretreatment with rapamycin 20 nM (FIG. 5A)) was 73.0%.

For `C[C@@H]1C[C@@H]([C@H](O)CC2CC(=O)NC(=O)C2)C(=O)[C@@H](C)C1` [CHX, cycloheximide], the “effect on DHPG induced LTD (in words)” value ([1]; slices from Tsc2^+/− mice) was “no effect on LTD”, the “DHPG induced LTD (fEPSP slope normalized to baseline)” value ([1]; slices from Tsc2^+/− mice, cycloheximide 60 μM (FIG. 3C)) was 83.5±2.1% and the “effect on DHPG induced LTD (in words)” value ([1]; slices from WT mice) was “reliably reduced”. The “DHPG induced LTD (fEPSP slope normalized to baseline)” value ([1]; slices from WT mice, pretreatment with cycloheximide 60 μM (FIG. 3A)) was 85.6±3.4%, the “PPF (ratio of fEPSP slope of stimulus 2 to stimulus 1)” value ([2]; Tsc2^+/− slices, DHPG+CHX) was 1.62±0.04 and the “PPF (ratio of fEPSP slope of stimulus 2 to stimulus 1)” value ([2]; WT slices, DHPG+CHX) was 1.58±0.05. The “effect on changes in PPF following DHPG (in words)” value ([2]; WT slices, cycloheximide 60 μM (FIG. 3D)) was “not inhibited”.
